IC50 data for 17 compounds are collected here from patent US7160874B2, “Phenylalanine derivatives” (Ajinomoto Co., Inc., priority 1999, dated 2007).

The target in assay [1] is T1, integrin α4β1 (Homo sapiens, UniProt P05556+P13612).
T1 construct: cell strain Jurkat (ATCC TIB-152) of human T cells, known to express integrin α4β1; host or cells: Jurkat (human T cell line)
Put plainly: VCAM antagonist activity (VCAM-1/α4β1 binding assay). It is filed as cell-based. The protocol: (Test Example) VCAM Antagonist Activity (VCAM-1/α4β1 Binding Assay):
The capacity of a test substance antagonistic to the binding of cell strain Jurkat (ATCC TIB-152) of human T cells, known to express integrin α4β1, to VCAM-1 was determined.
(§1) 100 μl/well of a solution (500 ng/ml) of recombinant human VCAM-1 (R & D systems) solution diluted with buffer A (0.1 M NaHCO3, pH 9.6) was added to a micro titer plate having 96 wells (Nunc Maxisorp). After the incubation at 4° C. overnight, unbound VCAM-1 was removed by washing once with PBS. After completion of the washing, a buffer (buffer B) obtained by diluting Block Ace® (Dainippon Pharmaceutical Co., Ltd.) with PBS to 1/4 concentration was added in an amount of 150 μl/well. After the incubation at room temperature for 1 hour, buffer B was removed and the plate was washed with PBS once.
Jurkat cells were washed with Dulbecco modified Eagle medium (SIGMA, hereinafter referred to as “DMEM”) twice and then incubated in DMEM containing 10 μg/ml of Calcein-AM (Wako Pure Chemical Industries, Ltd.) at 37° C. in dark place for 30 minutes to label with fluorescence. The cells were again suspended in a binding buffer (20 mM HEPES, DMEM containing 0.1% BSA).
(§2) 50 μl of a test substance of various concentrations obtained by the dilution with the binding buffer was added to the plate. Immediately thereafter, 50 μl (final volume: 100 μl/well) of the fluorescent Jurkat cells (4×10^6 cells/ml) were added thereto, and they were incubated at room temperature for 30 minutes. After the shaking on a plate shaker (IKA MTS-4) at 800 rpm for 30 seconds, the solution was immediately removed to remove the unbound cells. The fluorescence quantity of the bound cells remaining in the wells was determined with a fluorescent plate reader (Wallac 1420 ARVO multi-label counter) (filter excitation wave length: 485 nm, emission wave length: 535 nm). The fluorescent strength thus obtained is proportional to the number of Jurkat cells bound to VCAM-1 and remaining on the plate. The binding rate of each test material in various concentrations was determined while the fluorescent strength of the test material-free well was determined to be 100%. The concentration IC50 for the 50% binding inhibition was calculated.
(§3) The activities were classified into group A wherein IC50 was 0.02 μmol/l or below, group B wherein IC50 was higher than 0.02 μmol/l and not above 0.1 μmol/l, group C wherein IC50 was higher than 0.1 μmol/l and not above 2 μmol/l, and group D wherein IC50 was higher than 2 μmol/l and not above 10 μmol/l.

The target of assay [2] is T2, integrin α4β7 (Homo sapiens, UniProt P13612+P26010).
T2 construct: lymphoma cell strain RPMI-8866 of human B cells, known to express integrin α4β7; endogenous in cells; host or cells: RPMI-8866 (human B lymphoma cell line)
T2 sequence (P13612 34-1032): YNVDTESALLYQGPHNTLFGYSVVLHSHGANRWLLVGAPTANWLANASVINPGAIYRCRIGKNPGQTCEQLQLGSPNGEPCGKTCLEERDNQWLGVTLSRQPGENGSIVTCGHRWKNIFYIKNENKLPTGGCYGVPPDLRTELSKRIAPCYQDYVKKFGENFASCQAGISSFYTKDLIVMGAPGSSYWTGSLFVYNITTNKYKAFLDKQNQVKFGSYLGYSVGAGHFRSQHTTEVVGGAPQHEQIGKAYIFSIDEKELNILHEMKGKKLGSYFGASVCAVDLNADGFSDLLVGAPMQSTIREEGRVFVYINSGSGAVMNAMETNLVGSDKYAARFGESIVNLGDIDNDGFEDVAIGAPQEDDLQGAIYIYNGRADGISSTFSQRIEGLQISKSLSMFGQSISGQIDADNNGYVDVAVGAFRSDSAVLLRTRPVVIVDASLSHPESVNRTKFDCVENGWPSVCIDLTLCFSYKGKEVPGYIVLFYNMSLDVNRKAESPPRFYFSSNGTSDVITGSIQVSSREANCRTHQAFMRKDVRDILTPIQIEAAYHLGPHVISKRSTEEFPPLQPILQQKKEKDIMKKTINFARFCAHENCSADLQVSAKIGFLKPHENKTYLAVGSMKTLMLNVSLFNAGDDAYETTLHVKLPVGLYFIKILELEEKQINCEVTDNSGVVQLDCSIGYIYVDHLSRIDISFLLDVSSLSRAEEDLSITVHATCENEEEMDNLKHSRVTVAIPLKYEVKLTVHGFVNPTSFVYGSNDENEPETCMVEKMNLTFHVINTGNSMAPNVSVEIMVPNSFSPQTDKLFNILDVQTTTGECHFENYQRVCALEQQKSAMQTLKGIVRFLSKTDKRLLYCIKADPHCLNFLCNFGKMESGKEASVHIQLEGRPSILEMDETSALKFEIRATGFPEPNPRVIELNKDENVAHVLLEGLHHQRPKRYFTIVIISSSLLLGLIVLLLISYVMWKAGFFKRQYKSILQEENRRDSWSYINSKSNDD
T2 sequence (P26010 20-798): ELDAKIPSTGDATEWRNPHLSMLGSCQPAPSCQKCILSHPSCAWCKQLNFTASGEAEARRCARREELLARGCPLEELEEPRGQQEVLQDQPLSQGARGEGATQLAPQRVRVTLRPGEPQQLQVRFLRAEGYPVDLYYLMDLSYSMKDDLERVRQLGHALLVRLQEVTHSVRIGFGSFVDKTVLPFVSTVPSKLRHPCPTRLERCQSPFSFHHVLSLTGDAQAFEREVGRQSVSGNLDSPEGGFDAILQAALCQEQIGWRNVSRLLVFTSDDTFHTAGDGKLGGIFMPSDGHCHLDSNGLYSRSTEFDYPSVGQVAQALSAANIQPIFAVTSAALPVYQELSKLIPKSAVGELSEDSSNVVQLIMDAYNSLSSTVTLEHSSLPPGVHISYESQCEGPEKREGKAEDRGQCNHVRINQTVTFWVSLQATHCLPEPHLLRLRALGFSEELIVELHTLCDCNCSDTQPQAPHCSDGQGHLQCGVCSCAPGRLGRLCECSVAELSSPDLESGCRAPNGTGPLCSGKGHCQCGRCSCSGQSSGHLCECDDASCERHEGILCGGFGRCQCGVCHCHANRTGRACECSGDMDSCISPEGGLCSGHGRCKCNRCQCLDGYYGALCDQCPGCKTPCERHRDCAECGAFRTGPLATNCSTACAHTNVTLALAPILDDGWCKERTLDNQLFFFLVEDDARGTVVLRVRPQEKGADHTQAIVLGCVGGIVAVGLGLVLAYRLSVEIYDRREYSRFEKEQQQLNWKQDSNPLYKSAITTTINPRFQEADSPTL
Put plainly: VCAM antagonistic activity (VCAM-1/α4β7 binding assay). It is filed as cell-based. The protocol: (Test Example) VCAM Antagonistic Activity (VCAM-1/α4β7 Binding Assay):
The capacity of a test substance antagonistic to the binding of lymphoma cell strain RPMI-8866 of human B cells, known to express integrin α4β7, to VCAM-1 was determined.
as §1
RPMI-8866 cells were incubated in Dulbecco modified Eagle medium containing 10 μg/ml of Calcein-AM (Wako Pure Chemical Industries, Ltd.) (SIGMA, hereinafter referred to as “DMEM”) at 37° C. for 30 minutes to label with fluorescence. The cells were again suspended in a binding buffer (20 mM HEPES, DMEM containing 0.1% BSA) containing 4 mM of MnCl2.
as §2, with “RPMI-8866” for “Jurkat”
as §3

Setting [3] is: Jurkat cells binding to VCAM-1, read-out: VCAM antagonistic activity (IC50) α4β1.
The mark [4] stands for this setting: RPMI-8866 cells binding to VCAM-1, read-out: VCAM antagonistic activity (IC50) α4β7.

Where two headings read alike, the source gives them in different places.

T1 sequence (P05556 21-798, one chain of several): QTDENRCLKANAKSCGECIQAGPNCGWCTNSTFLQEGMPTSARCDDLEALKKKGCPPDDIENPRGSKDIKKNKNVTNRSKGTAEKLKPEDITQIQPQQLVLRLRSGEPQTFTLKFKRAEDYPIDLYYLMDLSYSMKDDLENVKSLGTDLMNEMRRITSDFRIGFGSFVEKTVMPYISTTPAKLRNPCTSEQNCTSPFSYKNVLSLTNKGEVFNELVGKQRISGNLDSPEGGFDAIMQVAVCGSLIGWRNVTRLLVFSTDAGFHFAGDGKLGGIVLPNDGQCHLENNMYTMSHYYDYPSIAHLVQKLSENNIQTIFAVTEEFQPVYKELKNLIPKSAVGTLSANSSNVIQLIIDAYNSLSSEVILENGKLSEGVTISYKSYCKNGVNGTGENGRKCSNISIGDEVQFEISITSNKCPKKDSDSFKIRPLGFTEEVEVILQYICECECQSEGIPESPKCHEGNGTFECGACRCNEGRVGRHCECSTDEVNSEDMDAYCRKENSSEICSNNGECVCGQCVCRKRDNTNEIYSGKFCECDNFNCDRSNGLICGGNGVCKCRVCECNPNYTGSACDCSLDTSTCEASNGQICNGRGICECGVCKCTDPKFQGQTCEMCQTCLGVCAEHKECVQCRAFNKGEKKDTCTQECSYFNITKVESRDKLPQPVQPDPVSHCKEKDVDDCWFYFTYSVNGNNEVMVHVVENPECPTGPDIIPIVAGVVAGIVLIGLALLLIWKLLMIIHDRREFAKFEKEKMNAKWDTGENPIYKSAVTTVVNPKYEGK

For `C#CCn1c(=O)n(-c2ccc(C[C@H](NC(=O)C(CC)(CC)C(=O)N3CCCC3)C(=O)O)cc2)c(=O)c2ccccc21` [Example 102], the IC50 in assay [1] (setting [3]) was 100 to 2000 nM; in assay [2] (setting [4]), less than 20 nM.

As to `CN(C)C(=O)C1(C(=O)N[C@@H](Cc2ccc(NC(=O)c3c(Cl)cccc3Cl)cc2)C(=O)O)CC1` [Example 90, N-[1-(N,N-dimethylaminocarbonyl)-cyclopropane-1-ylcarbonyl]-4-{[2,6-dichlorophenylcarbonyl]amino}-L-phenylalanine], the IC50 in assay [1] (setting [3]) fell in the range of 100 to 2000 nM; in assay [2] (setting [4]), 20 to 100 nM.

Regarding `CCC(C)(C(=O)NC(Cc1ccc(OCc2c(Cl)cccc2Cl)cc1)C(=O)O)C(=O)N1CCCC1` (mixture of isomers) [Example 38], the half-inhibitory concentration (IC50) in assay [1] (setting [3]) and in assay [2] (setting [4]) was 100 to 2000 nM in each case.

Turning to `O=C(O)[C@H](Cc1ccc(OCc2c(Cl)cccc2Cl)cc1)NC(=O)C1(C(=O)N2CCN(c3ccc(O)cc3)CC2)CCCC1` [Example 9], the IC50 in assay [1] (setting [3]) and in assay [2] (setting [4]) was 100 to 2000 nM each time.

As for `CC1(C)CC2CC(C)(CN2C(=O)C2(C(=O)NC(Cc3ccc(OCc4c(Cl)cccc4Cl)cc3)C(=O)O)CCOCC2)C1` (stereo not shown) [Example 472], the IC50 in assay [1] (setting [3]) lay within 2000 to 10000 nM; in assay [2] (setting [4]), 100 to 2000 nM.

On to `CCC(CC)(C(=O)N[C@@H](Cc1ccc(OCc2c(Cl)cccc2Cl)cc1)C(=O)O)C(=O)N1CCC[C@H]1C(=O)NC` [Example 72], for which the IC50 was 20 to 100 nM in assay [1] (setting [3]) and less than 20 nM in assay [2] (setting [4]).

Regarding `CCC(CC)(C(=O)N[C@@H](Cc1ccc(OCc2c(Cl)cccc2Cl)cc1)C(=O)O)C(=O)N1CCC[C@H]1COC` [Example 50], the IC50 was 100 to 2000 nM in assay [1] (setting [3]) and 20 to 100 nM in assay [2] (setting [4]).

Regarding `CCC(CC)(C(=O)N[C@@H](Cc1ccc(NC(=O)c2cc(Br)ccc2Cl)cc1)C(=O)O)C(=O)N1CCCC1` [Example 96], the IC50 in assay [1] (setting [3]) is 20 to 100 nM; in assay [2] (setting [4]) it was less than 20 nM.

As to `CCC(CC)(C(=O)N[C@@H](Cc1ccc(OCc2c(Cl)cccc2Cl)cc1)C(=O)O)C(=O)N1CCC(=O)C1` [Example 69], the results for the IC50 in assay [1] (setting [3]) and in assay [2] (setting [4]) were 100 to 2000 nM and less than 20 nM, respectively.

On to `CCC(CC)(C(=O)N[C@@H](Cc1ccc(-n2c(=O)c3ccccc3n(CC(=O)OC)c2=O)cc1)C(=O)O)C(=O)N1CCCC1` [Example 103], for which the IC50 in assay [1] (setting [3]) was in the range of 100 to 2000 nM; in assay [2] (setting [4]), 20 to 100 nM.

Regarding `CCC(CC)(C(=O)N[C@@H](Cc1ccc(OCc2c(Cl)cccc2Cl)cc1)C(=O)O)C(=O)N1CC(Br)C(Br)C1` (stereo partly drawn) [Example 79, N-(2-{[(trans-3,4-dibromopyrrolidine)-1-yl]carbonyl}-2-ethyl-butanoyl)-O-(2,6-dichlorobenzyl)-L-tyrosine], the IC50 in assay [1] is 100 to 2000 nM; in assay [2] it was less than 20 nM.

Consider `CCC(CC)(C(=O)N[C@@H](Cc1ccc(-c2c(OC)cccc2OC)cc1)C(=O)O)C(=O)N(C)C` [Example 104], for which the IC50 in assay [1] (setting [3]) lay within 100 to 2000 nM; in assay [2] (setting [4]), 20 to 100 nM.

Take `COc1cccc(OC)c1-c1ccc(C[C@H](NC(=O)C(C)(C)C(=O)N(C)C)C(=O)O)cc1` [Example 105, N-[3-(dimethylamino)-2,2-dimethyl-3-oxopropanoyl]-4-(2,6-dimethoxyphenyl)-L-phenylalanine]: the values for the IC50 in assay [1] (setting [3]) and in assay [2] (setting [4]) were 100 to 2000 nM and 20 to 100 nM, respectively.

In the case of `CCC(CC)(C(=O)N[C@@H](Cc1ccc(NC(=O)c2nc(SC)ncc2Cl)cc1)C(=O)O)C(=O)N1CCCC1` [Example 94, N-[2-(pyrrolidine-1-ylcarbonyl)-2-ethyl-butanoyl]-4-({[5-chloro-2-(methylthio)pyrimidine-4-yl]carbonyl}amino)-L-phenylalanine], the IC50 in assay [1] (setting [3]) was 20 to 100 nM; in assay [2] (setting [4]), less than 20 nM.

Take `CCC(CC)(C(=O)N[C@@H](Cc1ccc(OCc2c(Cl)cccc2Cl)cc1)C(=O)O)C(=O)N1CCCNCC1` [Example 42]: the IC50 was 100 to 2000 nM in assay [1] (setting [3]) and 20 to 100 nM in assay [2] (setting [4]).

Turning to `CCC(CC)(C(=O)N[C@@H](Cc1ccc(OCc2c(Cl)cccc2Cl)cc1)C(=O)O)C(=O)N1CC[C@@H](N(C)C)C1` [Example 44], the IC50 in assay [1] (setting [3]) is 100 to 2000 nM; in assay [2] (setting [4]) it was less than 20 nM.

`CN(C)C(=O)C1(C(=O)N[C@@H](Cc2ccc(NC(=O)c3cc(F)c(F)cc3Cl)cc2)C(=O)O)CC1` [Example 86]: the IC50 lay within 100 to 2000 nM in assay [1] (setting [3]) and 20 to 100 nM in assay [2] (setting [4]).
